Results taken from article PMC4802734 (Cell Chemical Biology, 2016).
“Also recorded” adds a separate entry of the source.

Legend:
[1] = target: T1, PrfAWT (Listeria monocytogenes serovar 1/2a, UniProt P22262); experiment: Isothermal titration calorimetry (ITC), binding to purified PrfAWT
T1 construct: followed by residues Glu7-N237; vector-derived N-terminal tail […]; (left after thrombin cleavage; inferred from pET28a and Ni-NTA capture), removed by thrombin (N, cleaved yes); made in house; host or cells: E. coli BL21(DE3)

[2] = test system: LLO and ActA expression in L. monocytogenes; experiment: Western blot of virulence protein levels (LLO, ActA, PrfA, P60), EGDe; format: cell-based, Listeria monocytogenes; conditions: for expression of LLO and ActA (protein): 100 μM; for PrfA expression (protein): across all concentrations
Method: (§1) (D) Compound 2 abrogates intracellular induction of ActA expression. Caco-2 cells were infected with the indicated bacteria and treated 30 min post infection with 100 μM of 2 or the equivalent volume of DMSO (C). Total cellular protein was extracted at indicated time points after addition of compound and subjected to SDS-PAGE. The levels of ActA protein were visualized by western blot using a specific antibody.
A detailed procedure is provided in the Supplemental Experimental Procedures.
concentration of 0.1% DMSO. […] The
incubated on ice for 1 h.
washed in 80% ice cold acetone.
Subsequently the samples were centrifuged and the
added lysozyme and DNase.
secondary antibodies (Dako P0260).

[3] = test system: L. monocytogenes strain F2365 uptake into Caco-2 cells; experiment: Uptake of L. monocytogenes strain F2365 into Caco-2 cells; format: cell-based, Listeria monocytogenes; conditions: 50 μM, 2 hr
Method: Protein extracts were isolated from indicated L. monocytogenes strain in the absence (C, equivalent volume DMSO) or presence of 100 μM of 1 and the specified proteins (LLO PrfA, or P60 (control)) were detected by western blot using specific antibodies. […] (B) Compound 2 inhibits the uptake of an L. monocytogenes strain of serovar 4b. L. monocytogenes strain F2365 was allowed to infect Caco-2 cells for 2 hr with 2 (50 μM). All samples were correlated to the DMSO-treated control (C, gray bar) which was arbitrarily set at 100%. Error bars show SDs.

[4] = target: T2, PrfAWT binding to hly-DNA (Listeria monocytogenes serovar 1/2a, UniProt P22262); experiment: SPR, binding of compound-pre-incubated PrfAWT to hly-promoter DNA; format: biochemical; conditions: 200 nM protein, 37°C, read-out: IC50, reduction of binding of PrfAWT to hly-DNA
T2 construct: followed by residues Glu7-N237; vector-derived N-terminal tail […]; (left after thrombin cleavage; inferred from pET28a and Ni-NTA capture), removed by thrombin (N, cleaved yes); made in house; host or cells: E. coli BL21(DE3)

[5] = test system: intracellular ActA expression of L. monocytogenes in Caco-2 cells; experiment: Intracellular ActA levels in infected Caco-2 cells, compound added 30 min post infection; format: cell-based, Listeria monocytogenes; conditions: 100 μM added 30 min post infection, 4 hr post infection
Method: as §1
ActA western blotting detection for intracellular bacteria: The collected bacterial pellets were resuspended in 100µl 1x sample buffer (Laemmli, 1970) and lysed by incubation at 98 °C for 20 min. 10µL of each sample was subjected to SDS-PAG and Western blotting using anti-ActA […]
Production of antibodies against ActA was conducted by Agrisera. The antibodies were raised in rabbits, against a peptide mix consisting of Y21T(Kocks et al., 1993) and (NH2-) […]
(-CONH2). The rabbits were immunized four times over a four month period, the first with FCA and the subsequent with FIA. The antisera was recovered 2 weeks after the last immunization.
Infection for determination of intracellular ActA levels
Caco-2 cells were seeded into 24 well plates (Corning #356408) and allowed to grow until confluent. Indicated bacterial strains were grown to OD600 = 1, added to CaCo-2 cells at a MOI of 10, centrifuged for 10 min at 800 g and allowed to infect for 30 minutes. […]

[6] = test system: L. monocytogenes strain EGDe (WT) uptake by HeLa cells; format: cell-based, Listeria monocytogenes; conditions: 10 and 1 μM, viable count
From the text: (§2) Figure 1 Ring-Fused 2-Pyridones Inhibit L. monocytogenes Uptake by Cultured Cells (A) Relative uptake (%) compared with control as determined by viable count measurements. […] All samples were correlated to the DMSO control (C, gray bar), which was arbitrarily set at 100%. Error bars show SDs. […] See also Figure S1. […] Error bars show SDs.

[7] = test system: L. monocytogenes carrying PrfAWT in Caco-2 cells; experiment: Time-course infection of Caco-2 cells, strain carrying PrfAWT; format: cell-based, Listeria monocytogenes; conditions: viable counts, 50 μM / 100 μM
From the text: as §2

[8] = target: the molecule itself; experiment: crystal structure

| Molecule | binding stoichiometry per monomer of homodimeric PrfA [1] | expression of LLO and ActA (protein) [2] | PrfA expression (protein) [2] | concentration down to which LLO and ActA levels were decreased ([2]; dose dependent) [µM] | uptake of the F2365 strain into Caco-2 cells [3] | IC50 [4] [µM] | induction of intracellular ActA levels [5] | L. monocytogenes uptake relative to untreated controls [6] | replication of L. monocytogenes (PrfAWT) within Caco-2 cells [7] | stoichiometry N [8] |
| --- | --- | --- | --- | --- | --- | --- | --- | --- | --- | --- |
| Cc1ccc(Cc2cc(=O)n3c(c2C2CC2)SC[C@H]3C(=O)O)c2ccccc12 [compound 2] | 1 to 1 | abolished | remained unchanged | ≤ 3.3 | effectively inhibited uptake | 6 to 7 | weakened in compound-treated cells, although not completely abolished | reducing the level of L. monocytogenes uptake | inability of L. monocytogenes to replicate; also recorded: unable to replicate |  |
| O=C(O)[C@@H]1CSc2c(C3CC3)c(Cc3cnc4ccccc4c3)cc(=O)n21 [compound 3] | 1 to 1 | did not reduce LLO or ActA expression | remained unchanged |  |  | ~30 |  | consistently failed to attenuate uptake |  |  |
| PrfA wild type (transcriptional activator PrfA of Listeria monocytogenes) (natural protein, also called PrfAWT; source: purified PrfA protein) MNAQAEEFKKYLETNGIKPKQFHKKELIFNQWDPQEYCIFLYDGITKLTSISENGTIMNLQYYKGAFVIMSGFIDTETSVGYYNLEVISEQATAYVIKINELKELLSKNLTHFFYVFQTLQKQVSYSLAKFNDFSINGKLGSICGQLLILTYVYGKETPDGIKITLDNLTMQELGYSSGIAHSSAVSRIISKLKQEKVIVYKNSCFYVQNLDYLKRYAPKLDEWFYLACPATWGKLN |  |  |  |  |  |  |  |  |  | 2 |
